Test results taken from the NIST ThermoML archive (doi:10.1016/j.jct.2007.06.014).

Assay: xn = mol fraction of the nth substance listed
Conditions: Liquid, Bellows volumetry

CCCC [butane] + CCC
mass density [kg/m3]
Conditions | 280 K | 300 K | 320 K | 340 K | 360 K | 380 K | 400 K | 420 K | 440 K
1000 kPa, x2 = 0.2729 | 578.83 | – | 528 | – | – | – | – | – | –
1000 kPa, x2 = 0.5021 | 563.28 | 537.32 | – | – | – | – | – | – | –
1000 kPa, x2 = 0.7308 | 546.41 | – | – | – | – | – | – | – | –
2000 kPa, x2 = 0.2729 | 580.29 | – | 530.61 | – | 467.01 | – | – | – | –
2000 kPa, x2 = 0.5021 | 564.88 | 539.48 | 511.85 | 479.55 | – | – | – | – | –
2000 kPa, x2 = 0.7308 | 548.19 | – | 489.94 | – | – | – | – | – | –
3000 kPa, x2 = 0.2729 | 581.81 | – | 533.12 | – | 472.48 | – | – | – | –
3000 kPa, x2 = 0.5021 | 566.5 | 541.56 | 514.73 | 483.91 | 445.79 | – | – | – | –
3000 kPa, x2 = 0.7308 | 550.07 | – | 493.41 | – | 409.73 | – | – | – | –
5000 kPa, x2 = 0.2729 | 584.56 | – | 537.8 | – | 481.94 | – | 398.7 | – | –
5000 kPa, x2 = 0.5021 | 569.65 | 545.62 | 519.99 | 491.54 | 458.29 | 415.53 | – | – | –
5000 kPa, x2 = 0.7308 | 553.51 | – | 499.74 | – | 428.83 | – | – | – | –
10000 kPa, x2 = 0.2729 | 591.21 | – | 548.01 | – | 499.9 | – | 441.29 | – | 365.44
10000 kPa, x2 = 0.5021 | 576.66 | 554.42 | 531.57 | 506.78 | 480.01 | 449.59 | 415.12 | 374.84 | –
10000 kPa, x2 = 0.7308 | 561.23 | – | 512.85 | – | 456.8 | – | 383.18 | – | –
20000 kPa, x2 = 0.2729 | 602.5 | – | 564.4 | – | 524.51 | – | 481.03 | – | 435.74
20000 kPa, x2 = 0.5021 | 588.96 | 569.12 | 549.41 | 528.92 | 507.83 | 485.35 | 462.03 | 438.42 | 414.16
20000 kPa, x2 = 0.7308 | 574.44 | – | 532.72 | – | 488.73 | – | 440.67 | – | 389.82
30000 kPa, x2 = 0.2729 | 612.44 | – | 577.65 | – | 542.33 | – | 505.41 | – | 469.11
30000 kPa, x2 = 0.5021 | 599.33 | 581.32 | 563.54 | 545.35 | 527.21 | 508.03 | 488.88 | 469.92 | 451.25
30000 kPa, x2 = 0.7308 | 585.33 | – | 547.73 | – | 509.86 | – | 470.45 | – | 431.31
40000 kPa, x2 = 0.2729 | 621.14 | – | 588.82 | – | 556.62 | – | 523.61 | – | 492.08
40000 kPa, x2 = 0.5021 | 608.38 | 591.53 | 575.17 | 558.59 | 542.25 | 525.24 | 508.28 | 491.93 | 475.9
40000 kPa, x2 = 0.7308 | 594.97 | – | 560.18 | – | 526.15 | – | 491.38 | – | 458.02
50000 kPa, x2 = 0.2729 | 628.91 | – | 598.52 | – | 568.47 | – | 538.25 | – | 509.82
50000 kPa, x2 = 0.5021 | 616.39 | 600.55 | 585.24 | 569.82 | 554.89 | 539.26 | 523.78 | 509 | 494.74
50000 kPa, x2 = 0.7308 | 603.42 | – | 570.96 | – | 539.49 | – | 507.84 | – | 478.11
60000 kPa, x2 = 0.2729 | 635.9 | – | 607.13 | – | 578.91 | – | 550.71 | – | 524.44
60000 kPa, x2 = 0.5021 | 623.79 | 608.7 | 594.24 | 579.76 | 565.84 | 551.17 | 536.84 | 523.17 | 510.12
60000 kPa, x2 = 0.7308 | 611.1 | – | 580.28 | – | 550.83 | – | 521.54 | – | 494.23
70000 kPa, x2 = 0.2729 | 642.5 | – | 614.83 | – | 588.2 | – | 561.45 | – | 537.02
70000 kPa, x2 = 0.5021 | 630.58 | 616.01 | 602.33 | 588.57 | 575.48 | 561.44 | 548.1 | 535.32 | 523.11
70000 kPa, x2 = 0.7308 | 618.12 | – | 588.77 | – | 561.04 | – | 533.25 | – | 507.76
80000 kPa, x2 = 0.2729 | 648.79 | – | 622.08 | – | 596.65 | – | 571.06 | – | 547.99
80000 kPa, x2 = 0.5021 | 636.93 | 622.84 | 609.65 | 596.66 | 584.07 | 570.85 | 558.01 | 546.03 | 534.41
80000 kPa, x2 = 0.7308 | 624.55 | – | 596.34 | – | 570.01 | – | 543.56 | – | 519.7
90000 kPa, x2 = 0.2729 | 654.49 | – | 628.57 | – | 604.5 | – | 579.66 | – | 557.71
90000 kPa, x2 = 0.5021 | 642.73 | 629.02 | 616.63 | 603.93 | 592.03 | 579.23 | 567.04 | 555.52 | 544.56
90000 kPa, x2 = 0.7308 | 630.61 | – | 603.52 | – | 578.24 | – | 552.92 | – | 530.16
100000 kPa, x2 = 0.2729 | 659.68 | – | 634.85 | – | 611.65 | – | 587.69 | – | 566.67
100000 kPa, x2 = 0.5021 | 648.26 | 635.14 | 623.18 | 610.72 | 598.96 | 587 | 575.06 | 564.2 | 553.96
100000 kPa, x2 = 0.7308 | 636.39 | – | 610.01 | – | 585.56 | – | 561.28 | – | 539.53
120000 kPa, x2 = 0.2729 | 669.67 | – | 646.16 | – | 624.31 | – | 601.92 | – | 582.31
120000 kPa, x2 = 0.5021 | 658.24 | 646 | 634.71 | 622.95 | 612.34 | 600.73 | 589.51 | 579.48 | 569.97
120000 kPa, x2 = 0.7308 | 646.6 | – | 621.8 | – | 599.05 | – | 576.29 | – | 556.04
140000 kPa, x2 = 0.2729 | 678.58 | – | 656.29 | – | 635.59 | – | 614.15 | – | 595.88
140000 kPa, x2 = 0.5021 | 667.41 | 655.77 | 644.69 | 634.01 | 623.77 | 612.71 | 602.26 | 592.86 | 583.79
140000 kPa, x2 = 0.7308 | 656.14 | – | 632.64 | – | 610.8 | – | 589.3 | – | 570.27
160000 kPa, x2 = 0.2729 | 686.88 | – | 665.5 | – | 645.73 | – | 625.33 | – | 607.79
160000 kPa, x2 = 0.5021 | 675.8 | 664.45 | 654.03 | 643.77 | 634.07 | 623.67 | 613.48 | 604.42 | 596.12
160000 kPa, x2 = 0.7308 | 664.71 | – | 642.48 | – | 621.39 | – | 600.76 | – | 582.77
180000 kPa, x2 = 0.2729 | 694.53 | – | 673.94 | – | 654.77 | – | 635.3 | – | 618.69
180000 kPa, x2 = 0.5021 | 683.54 | 672.59 | 662.68 | 652.74 | 643.46 | 633.32 | 623.72 | 615.03 | 606.9
180000 kPa, x2 = 0.7308 | 672.47 | – | 651.07 | – | 630.95 | – | 611.22 | – | 593.99
200000 kPa, x2 = 0.2729 | 701.52 | – | 681.74 | – | 663.07 | – | 644.44 | – | 628.49
200000 kPa, x2 = 0.5021 | 690.83 | 680.14 | 670.56 | 660.89 | 652.2 | 642.49 | 632.92 | 624.5 | 616.83
200000 kPa, x2 = 0.7308 | 679.87 | – | 659.14 | – | 639.82 | – | 620.55 | – | 604.14
